Test results: US20250108038A1 (priority 2023, published 2025)
Entries after “also recorded” stand apart in the source; their conditions may differ.

Legend:
[1] = target: BSEP (Homo sapiens, UniProt O95342); assay: Vesicular transport inhibition assay, BSEP (taurocholate); settings: for Maximum % inhibition: BSEP, inside-out membrane vesicles, TC (0.2 μM), NIO: No inhibition observed
Experimental: Vesicular transport assays were performed with inside-out membrane vesicles prepared from cells overexpressing human ABC (efflux) transporters. The transporters were expressed by SOLVO Biotechnology in mammalian (HEK293) cells. The mammalian cells were stably transfected with the ABC transporter of interest. The assays were conducted according to the actual SOLVO VT assay protocols (PR-ASY-VT-General Protocol for Vesicular Transport Inhibition Assays).
The membrane vesicle suspension was mixed with the ice-cold transport buffer, then the probe substrate solution was added. […] (for BCRP and MDR1). […] Reactions were quenched by the addition of 200 μL of ice-cold washing buffer and immediate filtration via glass fiber filters mounted to a 96-well plate (filter plate). The filters were washed (5×200 μL of ice-cold washing buffer), dried and the amount of substrate inside the filtered vesicles was determined by liquid scintillation counting.
Incubation with AMP provided background activity values for all data points.

[2] = target: T1, OATP1B1 (Homo sapiens, UniProt Q9Y6L6); assay: Uptake transporter inhibition assay, OATP1B1 (estradiol-17-β-glucuronide); settings: for Maximum % inhibition: OATP1B1, HEK293 cells, E217βG (1 μM), NIO: no inhibition observed
T1 sequence (Q9Y6L6 1-691): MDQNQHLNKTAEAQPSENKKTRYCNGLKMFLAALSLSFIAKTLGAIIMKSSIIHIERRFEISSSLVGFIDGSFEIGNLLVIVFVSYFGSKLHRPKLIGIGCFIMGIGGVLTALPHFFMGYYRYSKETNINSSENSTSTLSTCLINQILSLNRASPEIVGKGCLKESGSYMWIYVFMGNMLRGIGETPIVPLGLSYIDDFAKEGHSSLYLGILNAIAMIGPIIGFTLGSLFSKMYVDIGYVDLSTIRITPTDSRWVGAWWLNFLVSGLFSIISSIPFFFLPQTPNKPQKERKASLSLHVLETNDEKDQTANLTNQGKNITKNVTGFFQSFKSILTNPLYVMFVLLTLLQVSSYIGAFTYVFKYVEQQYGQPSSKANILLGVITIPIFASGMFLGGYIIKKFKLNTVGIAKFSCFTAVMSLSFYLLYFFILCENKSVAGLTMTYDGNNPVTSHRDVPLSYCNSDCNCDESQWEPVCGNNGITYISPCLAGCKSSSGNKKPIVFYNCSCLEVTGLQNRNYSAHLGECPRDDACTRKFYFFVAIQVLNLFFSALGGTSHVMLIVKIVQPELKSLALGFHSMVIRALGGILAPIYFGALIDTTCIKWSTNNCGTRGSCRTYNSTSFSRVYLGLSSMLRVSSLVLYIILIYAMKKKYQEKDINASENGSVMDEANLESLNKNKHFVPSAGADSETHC
Experimental: Uptake experiments were performed using HEK293 cells stably expressing the respective uptake transporters. The assays were conducted according to the actual SOLVO uptake transporter assay protocols (PR-ASY-UPT-General Protocol for Uptake Transporter Inhibition Assays).
Cells were cultured at 37° C. in a humidified atmosphere containing 5% CO2 and were plated onto standard 96-well tissue culture plates.
Before the experiment, the medium was removed, and the cells were washed twice with 100 μL of pre-warmed (37° C.) assay buffer listed in Table 15. The cells were pre-incubated at 37° C. for 30 minutes in assay buffer containing the test article at appropriate concentrations (Table 16), appropriate solvents for solvent controls and the reference inhibitor for reference inhibitor wells. After the pre-incubation step solutions were removed. Uptake experiments were performed at 37° C. in 50 μL of assay buffer containing the probe substrate and the test article or solvent and controls.
After the experiment, cells were washed twice with 100 μL of appropriate cold buffer and lysed with 150 μL scintillation cocktail. Radiolabeled probe substrate transport was determined by liquid scintillation counting.
Uptake of the probe substrate in control cells provided background activity values for all data points.

[3] = 2-concentration assay, up to 100 μM (Compound A up to 35 μM)
[4] = 2-concentration assay, up to 100 μM (Compound A up to 30 μM)
[5] = 0.14 μM nominal, follow-up assay
[6] = 1.24 μM nominal, follow-up assay
[7] = 11.11 μM nominal, follow-up assay
[8] = 33.33 μM nominal, follow-up assay
[9] = 100.00 μM nominal, follow-up assay
[10] = 0.14 μM nominal, 0.09 μM NSB corrected, follow-up assay
[11] = 1.24 μM nominal, 0.86 μM NSB corrected, follow-up assay
[12] = 10.00 μM nominal, 6.60 μM NSB corrected
[13] = 11.11 μM nominal, 7.89 μM NSB corrected, follow-up assay
[14] = 33.33 μM nominal, 24.33 μM NSB corrected, follow-up assay
[15] = 100.00 μM nominal, 77.00 μM NSB corrected
[16] = 100.00 μM nominal, 100.00 μM NSB corrected, follow-up assay
[17] = […] nominal, 1.89 μM NSB corrected, follow-up assay

BSEP, sequence (O95342 whole entry): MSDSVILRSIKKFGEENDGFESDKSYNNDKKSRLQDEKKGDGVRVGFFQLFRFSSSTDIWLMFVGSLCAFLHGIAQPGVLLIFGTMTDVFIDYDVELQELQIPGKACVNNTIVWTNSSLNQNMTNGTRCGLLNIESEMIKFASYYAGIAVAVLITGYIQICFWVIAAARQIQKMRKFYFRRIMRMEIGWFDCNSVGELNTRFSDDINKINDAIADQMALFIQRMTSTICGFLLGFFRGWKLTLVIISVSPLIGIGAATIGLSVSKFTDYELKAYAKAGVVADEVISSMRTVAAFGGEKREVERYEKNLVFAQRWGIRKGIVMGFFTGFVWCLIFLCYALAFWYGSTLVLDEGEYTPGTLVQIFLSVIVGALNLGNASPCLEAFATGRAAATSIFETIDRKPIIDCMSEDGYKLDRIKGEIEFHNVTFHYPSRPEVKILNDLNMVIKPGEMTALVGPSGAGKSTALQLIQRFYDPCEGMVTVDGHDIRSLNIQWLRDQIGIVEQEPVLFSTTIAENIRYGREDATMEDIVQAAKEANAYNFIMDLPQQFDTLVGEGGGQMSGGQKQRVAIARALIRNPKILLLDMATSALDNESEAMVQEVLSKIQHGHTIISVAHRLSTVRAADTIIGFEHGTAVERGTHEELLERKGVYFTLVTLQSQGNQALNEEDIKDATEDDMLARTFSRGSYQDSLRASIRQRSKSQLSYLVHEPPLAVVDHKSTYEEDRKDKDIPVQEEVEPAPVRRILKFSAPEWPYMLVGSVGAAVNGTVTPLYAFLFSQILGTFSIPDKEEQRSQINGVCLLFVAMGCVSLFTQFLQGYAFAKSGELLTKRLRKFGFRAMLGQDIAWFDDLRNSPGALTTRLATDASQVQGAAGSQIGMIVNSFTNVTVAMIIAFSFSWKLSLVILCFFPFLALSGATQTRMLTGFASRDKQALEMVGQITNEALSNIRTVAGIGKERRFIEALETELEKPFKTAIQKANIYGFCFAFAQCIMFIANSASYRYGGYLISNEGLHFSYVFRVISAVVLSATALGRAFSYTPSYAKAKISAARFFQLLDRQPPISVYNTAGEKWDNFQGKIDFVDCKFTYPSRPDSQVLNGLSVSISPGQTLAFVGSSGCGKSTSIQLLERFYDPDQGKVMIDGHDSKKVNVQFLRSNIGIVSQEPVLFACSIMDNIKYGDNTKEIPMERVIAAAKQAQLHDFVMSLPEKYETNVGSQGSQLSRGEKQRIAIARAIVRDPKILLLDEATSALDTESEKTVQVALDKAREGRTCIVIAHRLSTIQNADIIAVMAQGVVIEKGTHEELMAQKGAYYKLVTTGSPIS

`OC1(c2ccc(Cl)cc2)c2ccccc2C2=NCCN21` (centres unmarked) [Compound A, 5-(4-chlorophenyl)-2,3-dihydroimidazo[1,2-b]isoindol-5-ol, reference compound] was tested, and the “maximum inhibition of BSEP-mediated taurocholate accumulation” value [1, 3] was “did not inhibit; also recorded: not an in vitro inhibitor”, the Maximum % inhibition [1] was “NIO” and the inhibition at 35 μM ([1]; human) was 2%. For the same compound, the “Relative transporter specific accumulation” value ([2]; 3.00 μM nominal, E217βG, Table 119) was 96.77 ± 2.48 % of control, the “Relative transporter specific accumulation” value ([2]; 30.00 μM nominal, E217βG, Table 119) was 94.38 ± 2.14 % of control and the “maximum inhibition of OATP1B1-mediated E217βG accumulation” value [2, 4] was “did not inhibit; also recorded: not an in vitro inhibitor”. For the same compound, the Maximum % inhibition [2] was “NIO”, the inhibition at 3 μM ([2]; human) was 3% and the inhibition at 30 μM ([2]; human) was 6%.
For `Clc1ccc(C2(OCC3OCCO3)c3ccccc3C3=NCCN32)cc1` (centres unmarked) [Compound I-19], the ATP-dependent transport [1, 5] was 5,664.33 ± 228.93 cpm, the “Relative ATP-dependent transport” value [1, 5] was 114.35 ± 6.07 % of control and the Relative inhibition [1, 5] was −14%. For the same compound, the ATP-dependent transport [1, 6] was 4,919.33 ± 50.10 cpm, the “Relative ATP-dependent transport” value [1, 6] was 99.31 ± 4.70 % of control and the Relative inhibition [1, 6] was 1%. For the same compound, the ATP-dependent transport ([1]; 10.00 μM nominal) was 4,410.33 ± 297.54 cpm, the “Relative ATP-dependent transport” value ([1]; 10.00 μM nominal) was 90.09 ± 6.36 % of control and the Relative inhibition ([1]; 10.00 μM nominal) was 10%. The ATP-dependent transport [1, 7] was 4,442.00 ± 98.02 cpm, the “Relative ATP-dependent transport” value [1, 7] was 89.68 ± 4.59 % of control and the Relative inhibition [1, 7] was 10%. For the same compound, the ATP-dependent transport [1, 8] was 3,105.00 ± 99.98 cpm, the “Relative ATP-dependent transport” value [1, 8] was 62.69 ± 3.53 % of control and the Relative inhibition [1, 8] was 37%. For the same compound, the ATP-dependent transport ([1]; 100.00 μM nominal) was 1,103.00 ± 205.45 cpm, the “Relative ATP-dependent transport” value ([1]; 100.00 μM nominal) was 22.53 ± 4.22 % of control and the Relative inhibition ([1]; 100.00 μM nominal) was 77%. For the same compound, the ATP-dependent transport [1, 9] was 1,333.33 ± 146.13 cpm, the “Relative ATP-dependent transport” value [1, 9] was 26.92 ± 3.20 % of control and the Relative inhibition [1, 9] was 73%. The “maximum inhibition of BSEP-mediated taurocholate accumulation” value [1, 3] was 77%, the Maximum % inhibition [1] was 73% and the “maximum inhibition of BSEP-mediated taurocholate accumulation” value ([1]; follow-up assay) was 73%. For the same compound, the IC50 ([1]; follow-up assay, bottom constrained to 0) was 45.3 µM, the Relative inhibition [2, 10] was 0% and the “Relative transporter specific accumulation” value [2, 10] was 99.91 ± 3.20 % of control. For the same compound, the Transporter specific accumulation [2, 10] was 2,252.33 ± 16.07 cpm, the Relative inhibition [2, 11] was 3% and the “Relative transporter specific accumulation” value [2, 11] was 96.63 ± 3.76 % of control. For the same compound, the Transporter specific accumulation [2, 11] was 2,178.33 ± 50.48 cpm, the Relative inhibition [2, 12] was 25% and the “Relative transporter specific accumulation” value [2, 12] was 75.21 ± 2.39 % of control. The Transporter specific accumulation [2, 12] was 2,303.00 ± 45.84 cpm, the Relative inhibition [2, 13] was 23% and the “Relative transporter specific accumulation” value [2, 13] was 77.32 ± 2.52 % of control. The Transporter specific accumulation [2, 13] was 1,743.00 ± 16.09 cpm, the Relative inhibition [2, 14] was 50% and the “Relative transporter specific accumulation” value [2, 14] was 49.83 ± 2.48 % of control. For the same compound, the Transporter specific accumulation [2, 14] was 1,123.33 ± 43.53 cpm, the Relative inhibition [2, 15] was 87% and the “Relative transporter specific accumulation” value [2, 15] was 12.92 ± 0.41 % of control. For the same compound, the Transporter specific accumulation [2, 15] was 395.67 ± 8.05 cpm, the Relative inhibition [2, 16] was 83% and the “Relative transporter specific accumulation” value [2, 16] was 16.93 ± 0.58 % of control. The Transporter specific accumulation [2, 16] was 381.67 ± 5.50 cpm, the “maximum inhibition of OATP1B1-mediated E217βG accumulation” value [2, 4] was 87% and the Maximum % inhibition [2] was 83%. For the same compound, the Relative inhibition [2, 17] was 5%, the “Relative transporter specific accumulation” value [2, 17] was 95.49 ± 3.39 % of control and the Transporter specific accumulation [2, 17] was 2,152.67 ± 36.09 cpm. The “maximum inhibition of OATP1B1-mediated E217βG accumulation” value ([2]; follow-up assay) was 83% and the IC50 ([2]; follow-up assay, NSB-corrected concentrations) was 31.4 µM.
